# Measurements taken from patent US9879034B2, “Near-infrared absorption composition, cured film, near-infrared cut filter, solid-state imaging device, infrared sensor, and compound” (FUJIFILM Corporation, priority 2015, dated 2018).
# What was measured:
# [1] = Maximum absorption wavelength of compound solution (UV-1800); assay type: physicochemical; parameters: unit: nm; settings: dissolved in tetrahydrofuran, 1 g/L
# Method: According to the invention, the value of the maximum absorption wavelength is obtained as follows: a compound represented by Formula (1) is dissolved in tetrahydrofuran to prepare a solution with a concentration of 1 g/L, and an absorption spectrum of the solution obtained by dissolving the compound is measured in a wavelength range of 350 nm to 1,200 nm using UV-1800 manufactured by Shimadzu Corporation.
# Each compound was dissolved in tetrahydrofuran to prepare a solution with a concentration of 1 g/L. Next, the absorption spectrum of the solution obtained by dissolving each compound was measured using UV-1800 manufactured by Shimadzu Corporation, and a maximum absorption wavelength (λmax) was measured.
# [2] = Solubility of compound to solvent at 25° C.; assay type: physicochemical; settings: for Solubility Cyclohexanone / Solubility PGMEA / Solubility Toluene: 25° C.; for Solubility PGMEA: propylene glycol monomethyl ether acetate; for Solubility Cyclohexanone / solubility of the compound to each solvent (in words): cyclohexanone; for solubility of the compound to each solvent (in words): PGMEA; for Solubility Toluene / solubility of the compound to each solvent (in words): toluene
# Method: The solubility of each compound to each solvent (cyclohexanone, propylene glycol monomethyl ether acetate (PGMEA), and toluene) at 25° C. was evaluated based on the following standards.
# A: The solubility of the compound to the solvent at 25° C. is 2 mass % or greater.
SMILES,Maximum Absorption Wavelength [1],solubility of the compound to each solvent (in words) [2],Solubility Cyclohexanone [2],Solubility PGMEA [2],Solubility Toluene [2]
COCCOCCOCCOc1ccc(B2N=c3/c(=C4\C(=O)C(c5ccc6cccc7c6c5NB(c5ccc(OCCOCCOCCOC)cc5)N7)=C4O)ccc4cccc(c34)N2)cc1 [SQ-5],823,–,B (The solubility of the compound to the solvent at 25 °C is 1 mass % to less than 2 mass %.),A (The solubility of the compound to the solvent at 25 °C is 2 mass % or greater.),B (The solubility of the compound to the solvent at 25 °C is 1 mass % to less than 2 mass %.)
"CCC1(CC)N=c2/c(=C3\C(=O)C(c4ccc5cccc6c5c4NC(CC)(CC)N6)=C3O)ccc3cccc(c23)N1 [Compound R-2, reference compound]",807,did not have sufficient solubility,C (The solubility of the compound to the solvent at 25 °C is 0.5 mass % to less than 1 mass %.),C (The solubility of the compound to the solvent at 25 °C is 0.5 mass % to less than 1 mass %.),B (The solubility of the compound to the solvent at 25 °C is 1 mass % to less than 2 mass %.)
"CC(C)(C)c1ccc(B2N=c3/c(=C4\C(=O)C(c5ccc6cccc7c6c5NB(c5ccc(C(C)(C)C)cc5)N7)=C4O)ccc4cccc(c34)N2)cc1 [Compound R-1, reference compound]",827,did not have sufficient solubility,D (The solubility of the compound to the solvent at 25 °C is less than 0.5 mass %.),D (The solubility of the compound to the solvent at 25 °C is less than 0.5 mass %.),D (The solubility of the compound to the solvent at 25 °C is less than 0.5 mass %.)
CCCCCCCCCC(CCCCCCCCC)Oc1ccc(B2N=c3/c(=C4\C(=O)C(c5ccc6cccc7c6c5NB(c5ccc(OC(CCCCCCCCC)CCCCCCCCC)cc5)N7)=C4O)ccc4cccc(c34)N2)cc1 [SQ-4],823,–,B (The solubility of the compound to the solvent at 25 °C is 1 mass % to less than 2 mass %.),B (The solubility of the compound to the solvent at 25 °C is 1 mass % to less than 2 mass %.),A (The solubility of the compound to the solvent at 25 °C is 2 mass % or greater.)
CC(C)CCCC(C)CCc1ccc(B2N=c3/c(=C4\C(=O)C(c5ccc6cccc7c6c5NB(c5ccc(CCC(C)CCCC(C)C)cc5)N7)=C4O)ccc4cccc(c34)N2)cc1 (racemic) [SQ-2],823,–,A (The solubility of the compound to the solvent at 25 °C is 2 mass % or greater.),A (The solubility of the compound to the solvent at 25 °C is 2 mass % or greater.),A (The solubility of the compound to the solvent at 25 °C is 2 mass % or greater.)

# Continued, in another order:
Maximum Absorption Wavelength [1],solubility of the compound to each solvent (in words) [2],SMILES,Solubility Cyclohexanone [2],Solubility PGMEA [2],Solubility Toluene [2]
815,–,CCCCCCCCCC(CCCCCCCCC)B1N=c2/c(=C3\C(=O)C(c4ccc5cccc6c5c4NB(C(CCCCCCCCC)CCCCCCCCC)N6)=C3O)ccc3cccc(c23)N1 [SQ-7],B (The solubility of the compound to the solvent at 25 °C is 1 mass % to less than 2 mass %.),B (The solubility of the compound to the solvent at 25 °C is 1 mass % to less than 2 mass %.),B (The solubility of the compound to the solvent at 25 °C is 1 mass % to less than 2 mass %.)
828,–,C=CCCCCCCCCOc1ccccc1B1N=c2/c(=C3\C(=O)C(c4ccc5cccc6c5c4NB(c4ccccc4OCCCCCCCCC=C)N6)=C3O)ccc3cccc(c23)N1 [SQ-11],A (The solubility of the compound to the solvent at 25 °C is 2 mass % or greater.),B (The solubility of the compound to the solvent at 25 °C is 1 mass % to less than 2 mass %.),A (The solubility of the compound to the solvent at 25 °C is 2 mass % or greater.)
828,–,CCCCCCCCCCOc1ccccc1B1N=c2/c(=C3\C(=O)C(c4ccc5cccc6c5c4NB(c4ccccc4OCCCCCCCCCC)N6)=C3O)ccc3cccc(c23)N1 [SQ-6],B (The solubility of the compound to the solvent at 25 °C is 1 mass % to less than 2 mass %.),B (The solubility of the compound to the solvent at 25 °C is 1 mass % to less than 2 mass %.),A (The solubility of the compound to the solvent at 25 °C is 2 mass % or greater.)
